We go through 1 compound from patent US20100261723A1, “TRISUBSTITUTED PYRIMIDINE DERIVATIVES FOR THE TREATMENT OF PROLIFERATIVE DISEASES” (ASTRAZENECA AB, priority 2007, published 2010).

For one assay, the system named is Serine 473 in Akt. Kind of assay: In vitro phospho-Ser473 Akt assay, Test (c). The format is cell-based. The settings on record: MDA-MB-468 human breast adenocarcinoma cells, 2 hours; read-out: IC50 versus Serine 473 in Akt, Test (c). As to the method:
(c) In Vitro Phospho-SeR473 Akt Assay
This assay determines the ability of test compounds to inhibit phosphorylation of Serine 473 in Akt as assessed using Acumen Explorer technology (Acumen Bioscience Limited), a plate reader that can be used to rapidly quantitate features of images generated by laser-scanning.
A MDA-MB-468 human breast adenocarcinoma cell line (LGC Promochem, Teddington, Middlesex, UK, Catalogue No. HTB-132) was routinely maintained at 37° C. with 5% CO2 up to a confluency of 70-90% in DMEM containing 10% heat-inactivated FCS and 1% L-glutamine.
For the assay, the cells were detached from the culture flask using ‘Accutase’ (Innovative Cell Technologies Inc., San Diego, Calif., USA; Catalogue No. AT104) using standard tissue culture methods and resuspended in media to give 1.7×10^5 cells per mL. […]
All subsequent aspiration and wash steps were carried out using a Tecan 96 well plate washer (aspiration speed 10 mm/sec). […] An aliquot of PBS (50 μl) was added to each well and the plates were sealed with black plate sealers and the fluorescence signal was detected and analysed.
Fluorescence dose response data obtained with each compound were analysed and the degree of inhibition of Serine 473 in Akt was expressed as an IC50 value.

Another assay addresses T1, mTOR kinase (Homo sapiens, UniProt P42345).
T1 construct: FLAG; made in house
Kind of assay: In vitro mTOR kinase assay, Test (a)(i) (AlphaScreen). The format is biochemical. As to the method: (a)(i) In Vitro mTOR Kinase Assay
A C-terminal truncation of mTOR encompassing amino acid residues 1362 to 2549 of mTOR (EMBL Accession No. L34075) was stably expressed as a FLAG-tagged fusion in HEK293 cells as described by Vilella-Bach et al., […], 1999, 274, 4266-4272. The HEK293 FLAG-tagged mTOR (1362-2549) stable cell line was routinely maintained at 37° C. with 5% CO2 up to a confluency of 70-90% in Dulbecco's modified Eagle's growth medium (DMEM; Invitrogen Limited, Paisley, UK Catalogue No. 41966-029) containing 10% heat-inactivated foetal calf serum (FCS; Sigma, Poole, Dorset, UK, Catalogue No. F0392), 1% L-glutamine (Gibco, Catalogue No. 25030-024) and 2 mg/ml Geneticin (G418 sulfate; Invitrogen Limited, UK Catalogue No. 10131-027). Following expression in the mammalian HEK293 cell line, expressed protein was purified using the FLAG epitope tag using standard purification techniques.
A 30 μl mixture of recombinant purified mTOR enzyme, 1 μM biotinylated peptide substrate (Biotin-Ahx-[…]NH2; Bachem UK Ltd), ATP (20 μM) and a buffer solution [comprising Tris-HCl pH7.4 buffer (50 mM), EGTA (0.1 mM), bovine serum albumin (0.5 mg/mL), DTT (1.25 mM) and manganese chloride (10 mM)] was agitated at room temperature for 90 minutes.
These assay solutions were incubated for 2 hours at room temperature.
Phosphorylated biotinylated peptide is formed in situ as a result of mTOR mediated phosphorylation. The phosphorylated biotinylated peptide that is associated with AlphaScreen Streptavidin donor beads forms a complex with the p70 S6 Kinase (T389) 1A5 Monoclonal Antibody that is associated with Alphascreen Protein A acceptor beads. […] Accordingly, the presence of mTOR kinase activity results in an assay signal. In the presence of an mTOR kinase inhibitor, signal strength is reduced.
(In Alpha technology, singlet oxygen from a donor bead excites a nearby acceptor bead.)

The next assay has as its target T2, p110α Type Ia human PI3K (Homo sapiens, UniProt P42336).
T2 construct: full length DNA of each of the p110α, p110β and p110δ Type Ia human PI3K p110 isoforms; 6-His; made in house
Kind of assay: In vitro PI3K enzyme assay, Test (b)(i) (AlphaScreen). The class given is biochemical. Particulars: individual values, measured twice; read-out: IC50 versus p110α Type Ia human PI3K, Test (b)(i). The source says: (b)(i) In Vitro PI3K Enzyme Assay

Several values for one entry are separate records, joined by “and”; a condition that tells them apart may be missing. Equal values may be shown once. Read-outs that look alike come from different tables or passages of the source.

T1 sequence (P42345 1362-2549): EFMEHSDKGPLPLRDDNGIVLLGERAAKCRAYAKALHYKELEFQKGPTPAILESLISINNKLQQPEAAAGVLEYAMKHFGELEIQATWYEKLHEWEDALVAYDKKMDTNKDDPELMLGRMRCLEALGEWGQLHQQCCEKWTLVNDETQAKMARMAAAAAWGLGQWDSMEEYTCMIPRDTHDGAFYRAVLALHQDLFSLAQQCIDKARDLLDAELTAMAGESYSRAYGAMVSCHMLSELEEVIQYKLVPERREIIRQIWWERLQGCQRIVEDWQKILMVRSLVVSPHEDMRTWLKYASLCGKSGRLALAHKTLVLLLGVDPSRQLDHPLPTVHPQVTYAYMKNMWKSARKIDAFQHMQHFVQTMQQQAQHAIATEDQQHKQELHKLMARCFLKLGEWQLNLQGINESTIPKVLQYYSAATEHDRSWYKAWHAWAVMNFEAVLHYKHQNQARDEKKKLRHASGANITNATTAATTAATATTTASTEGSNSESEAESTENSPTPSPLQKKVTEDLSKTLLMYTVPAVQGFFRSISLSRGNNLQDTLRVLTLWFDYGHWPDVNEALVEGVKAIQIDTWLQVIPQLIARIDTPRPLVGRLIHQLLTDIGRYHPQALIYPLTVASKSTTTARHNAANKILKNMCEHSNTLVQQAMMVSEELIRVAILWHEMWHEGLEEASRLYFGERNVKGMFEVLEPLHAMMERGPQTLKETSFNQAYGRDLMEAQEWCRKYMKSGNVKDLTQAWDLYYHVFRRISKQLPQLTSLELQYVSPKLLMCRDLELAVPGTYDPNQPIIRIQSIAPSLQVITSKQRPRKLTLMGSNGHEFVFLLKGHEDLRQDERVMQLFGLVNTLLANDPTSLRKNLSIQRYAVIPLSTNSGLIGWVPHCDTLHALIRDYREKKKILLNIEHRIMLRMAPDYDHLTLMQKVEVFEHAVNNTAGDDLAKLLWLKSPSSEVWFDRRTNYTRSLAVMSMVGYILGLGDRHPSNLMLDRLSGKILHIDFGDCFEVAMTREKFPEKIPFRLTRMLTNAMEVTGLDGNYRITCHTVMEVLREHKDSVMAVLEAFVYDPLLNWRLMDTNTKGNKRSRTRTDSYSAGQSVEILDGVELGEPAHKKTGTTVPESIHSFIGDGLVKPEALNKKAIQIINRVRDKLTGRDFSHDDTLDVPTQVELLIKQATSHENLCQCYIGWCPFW
T2 sequence (P42336 whole entry, canonical isoform): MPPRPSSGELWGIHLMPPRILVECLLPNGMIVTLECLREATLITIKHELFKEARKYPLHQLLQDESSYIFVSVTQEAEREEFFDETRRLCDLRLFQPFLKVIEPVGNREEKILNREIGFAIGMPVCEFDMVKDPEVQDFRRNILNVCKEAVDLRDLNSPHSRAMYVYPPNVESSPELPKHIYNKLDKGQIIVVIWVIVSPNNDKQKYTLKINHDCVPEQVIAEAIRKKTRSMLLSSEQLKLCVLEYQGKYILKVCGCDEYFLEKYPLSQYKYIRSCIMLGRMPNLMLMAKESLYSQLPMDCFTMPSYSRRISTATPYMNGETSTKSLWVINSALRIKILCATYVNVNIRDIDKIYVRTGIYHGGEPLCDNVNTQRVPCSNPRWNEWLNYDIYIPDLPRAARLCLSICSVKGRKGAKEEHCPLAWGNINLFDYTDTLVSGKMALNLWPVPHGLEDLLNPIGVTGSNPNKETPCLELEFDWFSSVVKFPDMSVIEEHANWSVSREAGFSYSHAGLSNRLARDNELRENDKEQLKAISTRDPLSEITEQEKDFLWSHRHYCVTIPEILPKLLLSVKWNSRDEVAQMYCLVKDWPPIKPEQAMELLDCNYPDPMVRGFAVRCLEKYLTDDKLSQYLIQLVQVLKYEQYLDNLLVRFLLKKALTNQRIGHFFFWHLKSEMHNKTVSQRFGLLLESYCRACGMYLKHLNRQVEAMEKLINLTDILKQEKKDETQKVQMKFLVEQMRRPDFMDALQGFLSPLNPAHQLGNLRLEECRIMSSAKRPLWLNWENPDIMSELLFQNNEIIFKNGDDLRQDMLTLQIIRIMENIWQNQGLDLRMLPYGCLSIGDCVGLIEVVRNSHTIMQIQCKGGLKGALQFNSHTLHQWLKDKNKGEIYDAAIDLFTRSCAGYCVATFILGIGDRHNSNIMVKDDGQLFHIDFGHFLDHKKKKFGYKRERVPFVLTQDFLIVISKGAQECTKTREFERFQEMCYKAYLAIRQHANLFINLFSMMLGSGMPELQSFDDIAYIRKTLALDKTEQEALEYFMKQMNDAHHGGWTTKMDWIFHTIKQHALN
T2 sequence (P27986 whole entry partner, canonical isoform): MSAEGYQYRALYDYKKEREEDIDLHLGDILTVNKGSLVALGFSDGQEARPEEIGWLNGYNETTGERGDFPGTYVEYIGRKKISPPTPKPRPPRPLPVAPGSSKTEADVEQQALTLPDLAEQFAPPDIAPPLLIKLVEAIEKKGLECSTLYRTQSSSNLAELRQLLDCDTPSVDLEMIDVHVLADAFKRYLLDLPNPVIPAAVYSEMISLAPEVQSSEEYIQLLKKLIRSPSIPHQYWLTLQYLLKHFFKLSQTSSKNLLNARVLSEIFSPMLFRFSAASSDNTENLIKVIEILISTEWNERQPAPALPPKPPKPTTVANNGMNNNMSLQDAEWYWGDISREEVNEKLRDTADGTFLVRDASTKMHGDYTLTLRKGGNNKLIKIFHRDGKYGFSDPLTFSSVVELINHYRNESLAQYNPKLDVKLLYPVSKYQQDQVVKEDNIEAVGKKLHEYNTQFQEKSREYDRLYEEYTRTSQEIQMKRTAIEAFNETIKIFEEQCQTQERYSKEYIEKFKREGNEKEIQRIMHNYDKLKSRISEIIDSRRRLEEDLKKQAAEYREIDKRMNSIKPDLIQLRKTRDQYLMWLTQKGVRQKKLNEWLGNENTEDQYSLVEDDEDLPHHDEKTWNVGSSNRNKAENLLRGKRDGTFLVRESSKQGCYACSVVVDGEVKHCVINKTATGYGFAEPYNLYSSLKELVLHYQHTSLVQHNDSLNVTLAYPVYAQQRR

On to `CN(C)CC(=O)Nc1ccc(-c2nc(CS(C)(=O)=O)cc(N3CCOCC3)n2)cc1` [Example 5p, 2-dimethylamino-N-[4-[4-(methylsulfonylmethyl)-6-morpholin-4-yl-pyrimidin-2-yl]phenyl]acetamide], for which the half-inhibitory concentration (IC50) was 7.77 µM with Serine 473 in Akt; 2.46 µM and 1.64 µM at mTOR kinase (individual values, measured twice, read-out: IC50 versus mTOR kinase, Test (a)(i)); 2 µM at mTOR kinase (recombinant FLAG-tagged mTOR (1362-2549), ATP 20 μM, read-out: Test (a)(i) IC50); 93.3 µM and 51.6 µM at p110α Type Ia human PI3K.

Broadly, the IC50 is the concentration needed to halve the response being measured.
